Where two headings read alike, the source gives them in different places.
Key:
[1] = tested on: Trichomonas vaginalis G3 trophozoites; conditions: for T.vaginalis_Absorbance_Rep1: replicate 1, raw absorbance; for T.vaginalis_Absorbance_Rep2: replicate 2, raw absorbance
[2] = tested on: nontumorigenic neonatal foreskin fibroblast (NFF) cell line
[3] = HTS single concentration, parasite screen 1 µg/mL, replicate 1
[4] = HTS single concentration, parasite screen 1 µg/mL, replicate 2
[5] = NFF_NS1 screen 5 µg/mL, single concentration
[6] = HTS, parasite screen at 1 µg/mL, replicate 1
[7] = HTS, parasite screen at 1 µg/mL
[8] = HTS, parasite screen at 1 µg/mL, replicate 2
[9] = replicate 1, parasite screen at 1 µg/mL
[10] = replicate 2, parasite screen at 1 µg/mL
[11] = parasite screen at 1 µg/mL, replicate 1
[12] = parasite screen at 1 µg/mL, replicate 2
[13] = NFF_NS1 screen at 5 µg/mL, NFF cells

Which results are given for `C=C(C)[C@@H]1CC[C@]2(C(=O)OC)CC[C@]3(C)[C@H](CC[C@@H]4[C@@]5(C)CC[C@H](O)C(C)(C)[C@@H]5CC[C@]43C)[C@@H]12` [BIA-M1757]?
T.vaginalis_%inb_Rep1 [1, 3]: 14.81%; T.vaginalis_%inb_Rep2 [1, 4]: 16.56%; NFF_Activity [2, 5]: I (otherwise these were reported as inactive (I))

How did the T.vaginalis_%inb_Rep1 ([1]; HTS replicate 1, parasite screen 1 µg/mL) turn out when `CCCCCCCC(=O)N[C@H]1CCOC1=O` [Octanoyl-L-homoserine lactone] was run?
The T.vaginalis_%inb_Rep1 was 16.84%.

And the T.vaginalis_%inb_Rep2 ([1]; HTS replicate 2, parasite screen 1 µg/mL)?
The T.vaginalis_%inb_Rep2 was 14.05%.

What about the NFF_Activity ([2]; NFF fibroblasts, single concentration 5 µg/mL) of the same compound?
The NFF_Activity was “I (otherwise these were reported as inactive (I))”.

With `C/C=C/[C@@H]1C=C[C@@H]2C[C@H](C)CC[C@H]2[C@]1(C)/C(O)=C1/C(=O)[C@H](CO)N(C)C1=O` [Equisetin] as the compound, how does the T.vaginalis_%inb_Rep1 [1, 6] read?
Its T.vaginalis_%inb_Rep1 is 12.17%.

And the T.vaginalis_Absorbance_Rep1 [1, 7]?
The T.vaginalis_Absorbance_Rep1 was 0.942.

What about the T.vaginalis_%inb_Rep2 [1, 8] of the same compound?
The T.vaginalis_%inb_Rep2 was 15.65%.

What about the T.vaginalis_Absorbance_Rep2 [1, 7] of the same compound?
The T.vaginalis_Absorbance_Rep2 was 0.879.

And the NFF_Activity ([2]; NFF_NS1 screen at 5 µg/mL)?
The NFF_Activity was “I (otherwise these were reported as inactive (I))”.

With `CC[C@H](C)[C@H]1O[C@]2(C=C[C@@H]1C)C[C@@H]1C[C@@H](C/C=C(\C)[C@@H](O[C@H]3C[C@H](OC)[C@@H](O)[C@H](C)O3)[C@@H](C)/C=C/C=C3\CO[C@@H]4[C@H](O)C(C)=C[C@@H](C(=O)O1)[C@]34O)O2` [BIA-A1585] as the compound, how does the T.vaginalis_%inb_Rep1 [1, 3] read?
The T.vaginalis_%inb_Rep1 was 14.27%.

And the T.vaginalis_%inb_Rep2 [1, 4]?
Its T.vaginalis_%inb_Rep2 is 12.58%.

What about the NFF_Activity [2, 5] of the same compound?
Its NFF_Activity is “I (otherwise these were reported as inactive (I))”.

`CN1CCC2(c3cccc4c3NC3N(C)CCC43C34CCN(C)C3Nc3ccccc34)c3ccccc3NC12` (stereo not shown) [BIA-H1941] was tested. Which T.vaginalis_%inb_Rep1 [1, 9] did it give?
Its T.vaginalis_%inb_Rep1 is 7.39%.

And the T.vaginalis_%inb_Rep2 [1, 10]?
Its T.vaginalis_%inb_Rep2 is 6.28%.

What about the NFF_Activity ([2]; NFF cells, screen at 5 µg/mL) of the same compound?
The NFF_Activity was “A (active (A) compounds having >25% inhibitory activity)”.

`CCC[C@@H]1C[C@@H](C(=O)N[C@@H]([C@H]2O[C@H](SC)[C@H](O)[C@@H](O)[C@H]2O)[C@@H](C)O)N(C)C1` [BIA-L1457] was tested. Which T.vaginalis_%inb_Rep1 [1, 9] did it give?
The T.vaginalis_%inb_Rep1 was 12.27%.

And the T.vaginalis_%inb_Rep2 [1, 10]?
Its T.vaginalis_%inb_Rep2 is 9.94%.

And the NFF_Activity ([2]; NFF cells, screen at 5 µg/mL)?
Its NFF_Activity is “I (otherwise these were reported as inactive (I))”.

`CCCCCC[C@H]1C(=O)O[C@H](C)[C@H](NC(=O)c2cccc(NC=O)c2O)C(=O)O[C@@H](C)[C@@H]1OC(=O)CC(C)C` [BIA-A1442] was tested. Which T.vaginalis_%inb_Rep1 [1, 3] did it give?
The T.vaginalis_%inb_Rep1 was 17.88%.

What about the T.vaginalis_%inb_Rep2 [1, 4] of the same compound?
Its T.vaginalis_%inb_Rep2 is 12.87%.

And the NFF_Activity [2, 5]?
The NFF_Activity was “I (otherwise these were reported as inactive (I))”.

For `CSC[S@@+]([O-])CC(CO)NC(=O)/C=C/c1c(C)[nH]c(=O)[nH]c1=O` (stereo partly shown) [BIA-S1798], which T.vaginalis_%inb_Rep1 [1, 11] is on record?
Its T.vaginalis_%inb_Rep1 is 68.56%.

And the T.vaginalis_%inb_Rep2 [1, 12]?
The T.vaginalis_%inb_Rep2 was 88.33%.

What about the NFF_Activity [2, 13] of the same compound?
The NFF_Activity was “A (active (A) compounds having >25% inhibitory activity)”.

For `CC1=C[C@H]2O[C@@H]3[C@H](O)[C@@H](O)[C@](C)([C@@]2(CO)C[C@@H]1O)[C@]31CO1` [BIA-T1932], which T.vaginalis_%inb_Rep1 [1, 11] is on record?
The T.vaginalis_%inb_Rep1 was 10.49%.

What about the T.vaginalis_%inb_Rep2 [1, 12] of the same compound?
Its T.vaginalis_%inb_Rep2 is 13.71%.

And the NFF_Activity [2, 13]?
The NFF_Activity was “I (otherwise these were reported as inactive (I))”.

What does the source list for `CO[C@H]1/C=C\C=C(/C)C(=O)NC2=CC(=O)C(NCCN(C)C)=C(C[C@@H](C)C[C@H](OC)[C@H](O)[C@@H](C)/C=C(\C)[C@@H]1OC(N)=O)C2=O` [BIA-A1924]?
T.vaginalis_%inb_Rep1 [1, 3]: 5.66%; T.vaginalis_%inb_Rep2 [1, 4]: 62.10%; NFF_Activity [2, 5]: A (active (A) compounds having >25% inhibitory activity)

How did the T.vaginalis_%inb_Rep1 [1, 3] turn out when `CN1C(=O)c2ccccc2-n2c(nc3ccccc3c2=O)C1=Cc1ccccc1` [BIA-B1646] was run?
The T.vaginalis_%inb_Rep1 was 16.10%.

What about the T.vaginalis_%inb_Rep2 [1, 4] of the same compound?
The T.vaginalis_%inb_Rep2 was 13.67%.

And the NFF_Activity [2, 5]?
The NFF_Activity was “I (otherwise these were reported as inactive (I))”.

Which T.vaginalis_%inb_Rep1 [1, 3] does the source give for `CC(=O)OC[C@]12[C@H](O)C(=O)C(C)=C[C@H]1O[C@@H]1[C@H](O)C[C@@]2(C)[C@]12CO2` [BIA-A1922] here?
The T.vaginalis_%inb_Rep1 was 7.13%.

What about the T.vaginalis_%inb_Rep2 [1, 4] of the same compound?
The T.vaginalis_%inb_Rep2 was 15.54%.

And the NFF_Activity [2, 5]?
The NFF_Activity was “I (otherwise these were reported as inactive (I))”.

`COc1cc2c(c3oc(=O)c4c(c13)CCC4=O)[C@@H]1C=CO[C@@H]1O2` [BIA-A1232] was tested. Which T.vaginalis_%inb_Rep1 [1, 3] did it give?
Its T.vaginalis_%inb_Rep1 is 12.06%.

And the T.vaginalis_%inb_Rep2 [1, 4]?
The T.vaginalis_%inb_Rep2 was 5.64%.

And the NFF_Activity [2, 5]?
The NFF_Activity was “I (otherwise these were reported as inactive (I))”.

How did the T.vaginalis_%inb_Rep1 [1, 6] turn out when Dihydrocyclosporin A was run?
Its T.vaginalis_%inb_Rep1 is 11.52%.

What about the T.vaginalis_Absorbance_Rep1 [1, 7] of the same compound?
Its T.vaginalis_Absorbance_Rep1 is 0.923.

What about the T.vaginalis_%inb_Rep2 [1, 8] of the same compound?
The T.vaginalis_%inb_Rep2 was 13.52%.

And the T.vaginalis_Absorbance_Rep2 [1, 7]?
The T.vaginalis_Absorbance_Rep2 was 0.807.

What about the NFF_Activity ([2]; NFF_NS1 screen at 5 µg/mL) of the same compound?
Its NFF_Activity is “I (otherwise these were reported as inactive (I))”.

`COc1c(O)cc2cc(C)oc(=O)c2c1O` [BIA-R1077] was tested. Which T.vaginalis_%inb_Rep1 [1, 11] did it give?
Its T.vaginalis_%inb_Rep1 is 14.76%.

And the T.vaginalis_%inb_Rep2 [1, 12]?
Its T.vaginalis_%inb_Rep2 is 13.92%.

What about the NFF_Activity [2, 13] of the same compound?
The NFF_Activity was “I (otherwise these were reported as inactive (I))”.

With `C[C@@H]1OC(=O)[C@H]2C[C@H]3CCCC[C@@H]3[C@@H](/C=C/[C@H]3CCC[C@H](C)N3C)[C@@H]12` [BIA-H1744] as the compound, how does the T.vaginalis_%inb_Rep1 [1, 9] read?
The T.vaginalis_%inb_Rep1 was 12.98%.

And the T.vaginalis_%inb_Rep2 [1, 10]?
The T.vaginalis_%inb_Rep2 was 14.75%.

And the NFF_Activity ([2]; NFF cells, screen at 5 µg/mL)?
The NFF_Activity was “I (otherwise these were reported as inactive (I))”.
